Measured values as given in PubChem BioAssay AID248 (DTP/NCI, 2004).
Values joined by “and” are separate entries in the source; they are usually repeats but may differ in a detail not shown here. Identical values can stand only once. Toxic doses and inconclusive results are not listed. Rule as the data show it: active = T/C of 150% or more; inactive = T/C below 125%.

System: L1210 leukemia ip in BDF1 mice, survival T/C
Assay: NCI In Vivo Anticancer Drug Screen. Data for tumor model L1210 Leukemia (intraperitoneal) in B6D2F1 (BDF1) mice
Details: endpoint: mean survival time, higher = longer survival
Procedure, shortened: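 Each compound was tested against a transplantable tumor grown in mice. The endpoint was survival, with treated animals benchmarked against vehicle controls as a simple ratio.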

[1] = dose: 100.0 mg/kg/injection, schedule: Q01DX009 (ip), vehicle: Klucel (hydroxypropylcellulose) (HPC)
[2] = dose: 100.0 mg/kg/injection, schedule: Q04DX003 (ip), vehicle: Klucel (hydroxypropylcellulose) (HPC)
[3] = dose: 200.0 mg/kg/injection, schedule: Q01DX009 (ip), vehicle: Klucel (hydroxypropylcellulose) (HPC)
[4] = dose: 200.0 mg/kg/injection, schedule: Q04DX003 (ip), vehicle: Klucel (hydroxypropylcellulose) (HPC)
[5] = dose: 400.0 mg/kg/injection, schedule: Q01DX009 (ip), vehicle: Klucel (hydroxypropylcellulose) (HPC)
[6] = dose: 400.0 mg/kg/injection, schedule: Q04DX003 (ip), vehicle: Klucel (hydroxypropylcellulose) (HPC)
[7] = dose: 25.0 mg/kg/injection, schedule: Q04DX003 (ip), vehicle: Klucel (hydroxypropylcellulose) (HPC)
[8] = dose: 100.0 mg/kg/injection, schedule: Q04DX002 (ip), vehicle: Klucel (hydroxypropylcellulose) (HPC)
[9] = dose: 200.0 mg/kg/injection, schedule: Q04DX002 (ip), vehicle: Klucel (hydroxypropylcellulose) (HPC)
[10] = dose: 400.0 mg/kg/injection, schedule: Q04DX002 (ip), vehicle: Klucel (hydroxypropylcellulose) (HPC)
[11] = dose: 100.0 mg/kg/injection, schedule: Q01DX001 (ip), vehicle: carboxymethylcellulose (CMC)
[12] = dose: 200.0 mg/kg/injection, schedule: Q01DX001 (ip), vehicle: carboxymethylcellulose (CMC)
[13] = dose: 400.0 mg/kg/injection, schedule: Q01DX001 (ip), vehicle: carboxymethylcellulose (CMC)
[14] = dose: 100.0 mg/kg/injection, schedule: Q04DX003 (ip), vehicle: saline with Tween-80
[15] = dose: 200.0 mg/kg/injection, schedule: Q04DX003 (ip), vehicle: saline with Tween-80
[16] = dose: 400.0 mg/kg/injection, schedule: Q04DX003 (ip), vehicle: saline with Tween-80
[17] = dose: 50.0 mg/kg/injection, schedule: Q01DX001 (ip), vehicle: saline
[18] = dose: 100.0 mg/kg/injection, schedule: Q01DX001 (ip), vehicle: saline
[19] = dose: 200.0 mg/kg/injection, schedule: Q01DX001 (ip), vehicle: saline
[20] = dose: 400.0 mg/kg/injection, schedule: Q01DX001 (ip), vehicle: saline

Measured: T/C

[N-]=[N+]=NCC1OCOC1C1OCOC1CN=[N+]=[N-] (configuration not stated)
inactive: dose: 25.0 mg/kg/injection, schedule: Q01DX009 (ip), vehicle: saline 96 % of control | dose: 50.0 mg/kg/injection, schedule: Q01DX009 (ip), vehicle: saline 98 % of control | dose: 100.0 mg/kg/injection, schedule: Q01DX009 (ip), vehicle: saline 102 % of control

O=C(N/N=C/c1ccc2c(c1)OCO2)c1ccccc1
inactive: [1] 93 % of control | [2] 101 % of control | [3] 96 % of control | [4] 104 % of control | [5] 86 % of control | [6] 98 % of control

COc1ccc(/C=C2\N=C(c3ccc([N+](=O)[O-])cc3)OC2=O)cc1Br
inactive: dose: 100.0 mg/kg/injection, schedule: Q04DX002 (ip), vehicle: saline 101 % of control | dose: 200.0 mg/kg/injection, schedule: Q04DX002 (ip), vehicle: saline 104 % of control | dose: 400.0 mg/kg/injection, schedule: Q04DX002 (ip), vehicle: saline 115 % of control

NC(N)=NC(N)=NCCCCc1ccccc1
inactive: [7] 95 % of control | dose: 50.0 mg/kg/injection, schedule: Q04DX003 (ip), vehicle: Klucel (hydroxypropylcellulose) (HPC) 109 % of control | [2] 101 % of control

COc1ccccc1C(O)c1cnc(C)n1Cc1ccccc1 (configuration not stated)
inactive: dose: 100.0 mg/kg/injection, schedule: Q01DX001 (ip), vehicle: Klucel (hydroxypropylcellulose) (HPC) 113 % of control | [1] 96 % of control and 97 % of control | [8] 96 % of control and 98 % of control | [2] 92 % of control | dose: 200.0 mg/kg/injection, schedule: Q01DX001 (ip), vehicle: Klucel (hydroxypropylcellulose) (HPC) 100 % of control | [3] 96 % of control and 103 % of control | [9] 98 % of control and 92 % of control | [4] 92 % of control | dose: 400.0 mg/kg/injection, schedule: Q01DX001 (ip), vehicle: Klucel (hydroxypropylcellulose) (HPC) 95 % of control | [5] 93 % of control and 97 % of control | [10] 95 % of control and 92 % of control | [6] 95 % of control

O=C(Nc1ccc(C(F)(F)F)cc1)Nc1cccc(Cl)c1
inactive: dose: 50.0 mg/kg/injection, schedule: Q01DX001 (ip), vehicle: carboxymethylcellulose (CMC) 98 % of control | [11] 101 % of control | [12] 93 % of control | [13] 95 % of control

CSc1nc(SC)c2[nH]cnc2n1
inactive: [1] 100 % of control | [3] 105 % of control | [5] 98 % of control

CCCCn1c(N)n[nH]c1=S
inactive: [14] 100 % of control | [15] 90 % of control | [16] 94 % of control

CN(C)Cc1cc(C(C)(C)C)cc(C2CCCCC2)c1O
inactive: dose: 100.0 mg/kg/injection, schedule: Q01DX009 (ip), vehicle: saline with Tween-80 100 % of control | dose: 200.0 mg/kg/injection, schedule: Q01DX009 (ip), vehicle: saline with Tween-80 94 % of control | dose: 400.0 mg/kg/injection, schedule: Q01DX009 (ip), vehicle: saline with Tween-80 107 % of control

CCCCCc1nc2c(c(=O)n(C)c(=O)n2C)n1C
inactive: [17] 112 % of control | [18] 100 % of control | [19] 102 % of control | [20] 106 % of control

CCC1C2Cc3ccc(O)cc3C1(CC)CCN2C (configuration not stated)
inactive: [17] 101 % of control | [18] 101 % of control

CC(=O)c1ccc(C(=O)NCCCc2c(C)nc(N)[nH]c2=O)cc1
inactive: [14] 95 % of control | [15] 90 % of control | [16] 90 % of control

CCc1ccccc1NC(=O)Nc1ccccc1C(N)=O
inactive: [1] 87 % of control | [3] 93 % of control | [5] 93 % of control

CN(C)c1ccc(/C=N/NC(=O)c2ccc(N)cc2)cc1
inactive: [1] 89 % of control | [3] 86 % of control | [5] 89 % of control

CSc1cccc(NC(=O)/C=C/C(=O)O)c1
inactive: dose: 75.0 mg/kg/injection, schedule: Q01DX009 (ip), vehicle: Klucel (hydroxypropylcellulose) (HPC) 98 % of control | dose: 150.0 mg/kg/injection, schedule: Q01DX009 (ip), vehicle: Klucel (hydroxypropylcellulose) (HPC) 93 % of control | dose: 300.0 mg/kg/injection, schedule: Q01DX009 (ip), vehicle: Klucel (hydroxypropylcellulose) (HPC) 93 % of control

CCOC(=O)NCC(C)(C)C
inactive: [18] 104 % of control | [19] 107 % of control | [20] 93 % of control

NC1=CCNC(=O)N1c1ccccc1
inactive: dose: 100.0 mg/kg/injection, schedule: Q01DX Z (ip), vehicle: methylcellulose (MC) 105 % of control

CCOC(=O)CC(CC(=O)OCC)NC(=O)c1ccc(N(C)C(=O)OCc2ccccc2)cc1
inactive: [11] 97 % of control | [12] 100 % of control | [13] 105 % of control

CC(C)c1ccccc1O
inactive: [2] 94 % of control | [4] 95 % of control | [6] 90 % of control

NC(=O)C(F)(F)c1ccccc1
inactive: [18] 105 % of control | [19] 103 % of control | [20] 102 % of control

COc1ccc(CCN2C(=O)c3cccc4c([N+](=O)[O-])ccc(c34)C2=O)cc1OC
inactive: [1] 100 % of control | [3] 94 % of control | [5] 93 % of control

Cn1ccc[n+]1C
inactive: [18] 93 % of control | [19] 101 % of control | [20] 92 % of control

C[C@]12CC[C@H](O)CC1=CC[C@@H]1[C@@H]2CC[C@]2(C)c3nc4ccccc4cc3C[C@@H]12
inactive: dose: 15.6 mg/kg/injection, schedule: Q01DX Z (sc), vehicle: steriod suspending solution 94 % of control | dose: 31.3 mg/kg/injection, schedule: Q01DX Z (sc), vehicle: steriod suspending solution 93 % of control | dose: 62.5 mg/kg/injection, schedule: Q01DX Z (sc), vehicle: steriod suspending solution 94 % of control | dose: 100.0 mg/kg/injection, schedule: Q01DX009 (sc), vehicle: steriod suspending solution 94 % of control | dose: 100.0 mg/kg/injection, schedule: Q04DX003 (ip), vehicle: steriod suspending solution 98 % of control | dose: 125.0 mg/kg/injection, schedule: Q01DX Z (sc), vehicle: steriod suspending solution 96 % of control | dose: 200.0 mg/kg/injection, schedule: Q01DX009 (sc), vehicle: steriod suspending solution 92 % of control | dose: 200.0 mg/kg/injection, schedule: Q04DX003 (ip), vehicle: steriod suspending solution 107 % of control | dose: 250.0 mg/kg/injection, schedule: Q01DX Z (sc), vehicle: steriod suspending solution 104 % of control | dose: 400.0 mg/kg/injection, schedule: Q01DX009 (sc), vehicle: steriod suspending solution 89 % of control | dose: 400.0 mg/kg/injection, schedule: Q04DX003 (ip), vehicle: steriod suspending solution 106 % of control | dose: 500.0 mg/kg/injection, schedule: Q01DX Z (sc), vehicle: steriod suspending solution 94 % of control

C[Se]c1nc2c(=O)[nH]c(N)nc2n1C1OC(CO)C(O)C1O (configuration not stated)
inactive: dose: 100.0 mg/kg/injection, schedule: Q01DX005 (ip), vehicle: saline 107 % of control | dose: 200.0 mg/kg/injection, schedule: Q01DX005 (ip), vehicle: saline 102 % of control

CCC(=O)OC1CC2C3CCC4=CC(=O)CCC4(C)C3CCC2(C)C1OC(=O)CC (configuration not stated)
inactive: [1] 98 % of control | [2] 95 % of control | [3] 98 % of control | [4] 95 % of control | [5] 97 % of control | [6] 101 % of control

CCO/N=C(/C)C(C)SC#N (configuration not stated)
inactive: dose: 10.0 mg/kg/injection, schedule: Q01DX001 (ip), vehicle: saline 97 % of control | dose: 20.0 mg/kg/injection, schedule: Q01DX001 (ip), vehicle: saline 105 % of control

O=C(CC1C(=O)Nc2ccccc21)CC1C(=O)Nc2ccccc21 (configuration not stated)
inactive: [8] 102 % of control | [9] 97 % of control | [10] 102 % of control

CC(C)=CCN(CC=C(C)C)CCC(C(N)=O)c1cccc2ccccc12 (configuration not stated)
inactive: dose: 6.25 mg/kg/injection, schedule: Q04DX003 (ip), vehicle: Klucel (hydroxypropylcellulose) (HPC) 93 % of control | dose: 12.5 mg/kg/injection, schedule: Q04DX003 (ip), vehicle: Klucel (hydroxypropylcellulose) (HPC) 93 % of control | [7] 98 % of control
